Test results taken from paper doi:10.1101/2021.07.20.453049v1, “Integration of the cyanophage-encoded phosphate binding protein into the cyanobacterial phosphate uptake system” (biorxiv, 2021).

Columns and labels:
[1] = biological target: phage PstS (cyanophage P-SSM2 PstS) (Prochlorococcus phage P-SSM2, UniProt Q58MA7); assay: biochemical
[2] = biological target: T1, host PstS (Prochlorococcus NATL2A PstS) (Prochlorococcus marinus, UniProt Q46KP5); conditions: 20 mM Tris-HCl, 200 mM NaCl, pH 7.5, room temperature, 24 h; trace 32P tracer with cold NaH2PO4
T1 construct: gene PMN2A_0441

[3] = biological target: T2, Syn19 PstS (group II cyanophage PstS) (Synechococcus phage Syn19, UniProt E3SQC4); type: binding; conditions: crystallised with 5 mM sodium phosphate, pH 7.5; 18% PEG 3350, 0.2 M sodium formate
T2 construct: recombinant, E. coli BL21(DE3), pET-22b, C-terminal His6 tag
T2 sequence (E3SQC4 19-326): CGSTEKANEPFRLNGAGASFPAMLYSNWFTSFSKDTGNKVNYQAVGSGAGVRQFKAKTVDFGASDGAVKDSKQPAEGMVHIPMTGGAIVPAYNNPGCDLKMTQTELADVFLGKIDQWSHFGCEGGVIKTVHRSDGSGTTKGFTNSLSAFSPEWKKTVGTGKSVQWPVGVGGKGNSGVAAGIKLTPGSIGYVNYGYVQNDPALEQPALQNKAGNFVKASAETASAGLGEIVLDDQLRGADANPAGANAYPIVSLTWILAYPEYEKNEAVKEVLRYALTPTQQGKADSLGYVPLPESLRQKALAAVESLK

T1 sequence (Q46KP5 25-323): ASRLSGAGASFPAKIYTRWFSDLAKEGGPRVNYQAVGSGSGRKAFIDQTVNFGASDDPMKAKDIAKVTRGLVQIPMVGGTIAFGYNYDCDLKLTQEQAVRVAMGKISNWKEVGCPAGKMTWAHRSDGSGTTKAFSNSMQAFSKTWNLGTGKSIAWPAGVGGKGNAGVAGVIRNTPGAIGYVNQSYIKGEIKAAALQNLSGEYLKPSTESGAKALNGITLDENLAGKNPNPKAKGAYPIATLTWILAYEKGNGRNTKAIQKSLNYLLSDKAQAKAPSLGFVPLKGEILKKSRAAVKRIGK
Sequence of phage PstS (cyanophage P-SSM2 PstS) (Q58MA7 21-321): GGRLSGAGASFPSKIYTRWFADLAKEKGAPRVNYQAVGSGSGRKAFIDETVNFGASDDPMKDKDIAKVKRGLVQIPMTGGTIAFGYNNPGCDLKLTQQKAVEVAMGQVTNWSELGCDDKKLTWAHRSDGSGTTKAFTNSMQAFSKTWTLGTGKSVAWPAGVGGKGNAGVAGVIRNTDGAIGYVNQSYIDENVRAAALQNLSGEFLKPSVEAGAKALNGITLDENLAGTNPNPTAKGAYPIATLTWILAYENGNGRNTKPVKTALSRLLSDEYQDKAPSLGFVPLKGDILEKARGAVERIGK

Kd [1]: 1.39 ± 0.22 µM | Kd [2]: 0.82 ± 0.44 µM
Compound: O=P(O)(O)O [phosphate]
X-ray crystal structure, 1.70 Å [3]: The PstS structure of cyanophage Syn19 in complex with PO4.
